Patent US20070197389A1 (priority 2004, published 2007)

Tests used:
Pyricularia oryzae = format: cell-based; conditions: 125 ppm active compound, microtiter plate, absorption at 405 nm on day 7 after inoculation, relative to active compound-free control
Phytophthora infestans = format: in vivo; conditions: 250 ppm active compound, potted tomato plants, sprayed 1 day before infection, assessed after 6 days; untreated plants 70% infected

Compound | relative growth (Pyricularia oryzae) | infection (Phytophthora infestans)
CC(=O)Nc1c(-c2c(F)cc(F)cc2F)c(Cl)nc2ncnn12 [Example 4, N-[5-Chloro-6-(2,4,6-trifluorophenyl)(1,2,4-triazolo[1,5-a]pyrimidin-7-yl)]acetamide] | less than or equal to 1% | –
CCC(=O)Nc1c(-c2c(F)cc(F)cc2F)c(Cl)nc2ncnn12 [Example 5, N-[5-chloro-6-(2,4,6-trifluorophenyl)(1,2,4-triazolo-[1,5-a]pyrimidin-7-yl)]propionamide] | – | less than or equal to 15%
